{"source": "patent US20170216328A1", "about": "“METHODS AND COMPOSITIONS FOR MICROBIOME ALTERATION” (Ritter Pharmaceuticals, Inc., priority 2014, published 2017)", "tested_on": "Bifidobacterium species and strains", "test": "Comparative growth of Bifidobacterium species and strains in scratch MRS with 2% carbohydrate", "assay_type": "cell-based", "description": "The objective of the study was to determine the ability of various Bifidobacterium species and strains to grow on galactooligosaccharides\nThe growth of Lactobacillus and Bifidobacterium strains was evaluated in scratch MRS (Table 16) supplemented with 2% of a carbohydrate solution. The carbohydrates used in the experiments were: Glucose—Fisher; Lactose—Fisher; GOS1-95% GOS purity from Inalco SPA—Provided by Ritter Pharmaceuticals; GOS2-90% GOS purity from GTC—provided by Ritter Pharmaceuticals.\nCarbohydrate stock solutions were filter sterilized and then added to either a scratch MRS formulation (Table 16), or a semisynthetic medium (Table 17).\nLactobacillus and Bifidobacterium cultures were propagated in MRS broth overnight, and then transferred once through the test medium. For growth experiments, cultures were inoculated into the MRS scratch medium containing one of the 4 carbohydrates to be examined. Growth was monitored either: **automatically, using a FLUOStar OPTIMA microtiter plate reader to monitor the change in absorbance (A600) as a function of the time. The strains were incubated at 37 C aerobically for these experiments; or ** manually, using a standard spectrophotometer to monitor the change in OD600 nm over time, in 5 ml liquid culture tubes. These cultures were incubated anaerobically at 37° C. in a COY anaerobic chamber, flushed with anaerobic gas. […]", "data": [{"compound": "OC[C@H]1O[C@@H](O[C@H]2[C@H](O)[C@@H](O)C(O)O[C@@H]2CO)[C@H](O)[C@@H](O)[C@H]1O", "note": "(stereo partly shown) [lactose]", "values": [{"measurement": "Growth of Bifidobacterium strains on lactose", "result": "none of the Bifidobacterium strains used in these experiments grew on lactose, except for B. pseudolongum"}]}]}
